{"source": "patent US20140314857A1", "about": "“FORMULATIONS FOR ENHANCED BIOAVAILABILITY OF ZANAMIVIR” (priority 2012, published 2014)", "key": {"[1]": {"assay": "Intraduodenal bioavailability of zanamivir from glycerol and PBS formulations, enhancer pre-dose (Example 6)", "details": "male, Sprague-Dawley, rat, in vivo, ID 1.5 mg/animal; for concentration at 0.25 hr / concentration at 0.5 hr / concentration at 0.83 hr / concentration at 1 hr / concentration at 1.5 hr / concentration at 2 hr: 1.5 mg/animal, Plasma concentration", "text": "Male Sprague-Dawley rats (Hilltop Labs), 3 animals per treatment group, 250-350 grams in weight, were fitted with a jugular vein cannula (JVC). Animals intended for intraduodenal dosing were also fitted with one or more intraduodenal cannula (IDC) and those intended for intravenous dosing were fitted with a second JVC. Food was withheld from the animals for a minimum of twelve hours prior to test article administration and was returned approximately four hours post-dose. Water was supplied ad libitum.\nIntraduodenal doses composed of 1.5 mg of zanamivir and varying amounts of an enhancer (glycerol or Capmul MCM L8) were injected directly into the duodenum via the IDC. Intravenous dosing was conducted by the injection of 1.5 mg of zanamivir in 200 μL of PBS through a JVC. For some experiments, the absorption enhancer was administered intraduodenally 2 hr prior to administering 1.5 mg of zanamivir in PBS through a second IDC. Each intraduodenal dose was followed with the introduction of a small air bubble (˜10 μL) in the cannula followed by a flush of 125 μL of PBS to ensure the dose was given in full. The volume of PBS used for cannula flush was consistent across the treatment groups. The cannula was tied to prevent the PBS remaining in the cannula from entering the duodenum.\nBlood samples collected via the JVC, approximately 400 μL each, were obtained at 2 min, 5 min, 15 min, 30 min, 60 min, 90 min, and 120 min, with sodium heparin used as an anti-coagulant. Each sample was placed into a chilled tube containing the anticoagulant and kept on ice until centrifugation at 4° C., 3,000×g, for 5 min. The plasma supernatants were stored at −70° C. until LC-MS analysis.\nDosing solution samples were assayed by LC-MS/MS using electrospray ionization. The chromatographic system consisted of Perkin Elmer series 200 micropumps and autosampler equipped with a Waters Atlantic® HILIC Silica 3 μM, 2.1×50 mm column. The mass spectrometer was a PE Sciex API 4000 with electrospray interface in multiple reaction monitoring mode. […] Stock solutions (1 mg/mL zanamivir) were prepared in water. Standards (eight concentrations) were prepared in the appropriate matched matrix (HBSSg or Sprague-Dawley rat plasma containing sodium heparin) and diluted 50-fold with methanol. Experimental samples were treated identically.\nStandards and samples were prepared in Sprague Dawley rat plasma containing sodium heparin as an anticoagulant. An eight-point calibration curve was prepared at concentrations of 1000, 750, 500, 250, 100, 50, 25, and 10 ng/mL by serial dilution. Standard samples were treated identically to the study samples.\nPlasma samples were extracted by protein precipitation in methanol.\nIn this example, the bioavailability of Zanamivir was evaluated after intraduodenal doses in male Sprague-Dawley rats. The test compound was dosed at 1.5 mg/animal through intraduodenal routes from glycerol and PBS formulations. Plasma levels were determined by LC-MS/MS analysis. Pharmacokinetic parameters were estimated by a non-compartmental model using WinNonlin v5.2.1 software."}, "[2]": {"assay": "Express IV formulation development: solubility screening in normal saline", "type": "physicochemical", "details": "saline or isotonic, thermodynamic from solid, NS, visual observation after vortexing", "experimental": "The following procedure and potential dosing vehicles were evaluated, and the results are described. The target concentrations of 5 mg/mL were investigated. 1. Weigh 2-5 mg of the zanamivir into a 4 mL glass vial. 2. Add the appropriate volume of normal saline. 3. Vortex, record observations of the formulation. 4. Take an aliquot and dilute it 5-fold with NS. 5. Record observations of the formulation. 6. End of the procedure."}, "[3]": {"details": "50 µL PBS, 50 µL blank Capmul MCM L8 -2 hr, individual rats"}, "[4]": {"details": "50 µL PBS, 50 µL blank Capmul MCM L8 -2 hr, mean"}, "[5]": {"details": "50 µL PBS, 150 µL blank glycerol -2 hr, mean"}, "[6]": {"details": "50 µL PBS, 150 µL blank glycerol -2 hr, individual rats"}, "[7]": {"details": "100 µL Glycerol, individual rats"}, "[8]": {"details": "150 µL Glycerol, individual rats"}}, "data": [{"smiles": "CC(=O)NC1C(NC(=N)N)C=C(C(=O)O)OC1C(O)C(O)CO", "note": "(stereo not drawn) [Zanamivir, 5-acetamido-4-guanidino-6-(1,2,3-trihydroxypropyl)-5,6-dihydro-4H-pyran-2-carboxylic acid]", "values": [{"measurement": "Tmax", "setting": "[1]; 1.5 mg, tmax, 100 µL Glycerol, mean", "result": 43.2, "unit": "min"}, {"measurement": "concentration at 0.25 hr", "setting": "[1]; [3]", "result": 33.3, "unit": "ng/mL"}, {"measurement": "concentration at 0.25 hr", "setting": "[1]; [4]", "result": 29.5, "unit": "ng/mL"}, {"measurement": "concentration at 0.5 hr", "setting": "[1]; [3]", "result": 38, "unit": "ng/mL"}, {"measurement": "concentration at 0.5 hr", "setting": "[1]; [4]", "result": 38.5, "unit": "ng/mL"}, {"measurement": "concentration at 0.83 hr", "setting": "[1]; [4]", "result": 10.8, "unit": "ng/mL"}, {"measurement": "concentration at 1 hr", "setting": "[1]; [3]", "result": 33, "unit": "ng/mL"}, {"measurement": "concentration at 1 hr", "setting": "[1]; [4]", "result": 32.7, "unit": "ng/mL"}, {"measurement": "concentration at 1.5 hr", "setting": "[1]; [4]", "result": 38.7, "unit": "ng/mL"}, {"measurement": "concentration at 2 hr", "setting": "[1]; [4]", "result": 33.8, "unit": "ng/mL"}, {"measurement": "concentration at 0.25 hr", "setting": "[1]; [5]", "result": 51.8, "unit": "ng/mL"}, {"measurement": "concentration at 0.5 hr", "setting": "[1]; [6]", "result": 50.2, "unit": "ng/mL"}, {"measurement": "concentration at 0.5 hr", "setting": "[1]; [5]", "result": 54.2, "unit": "ng/mL"}, {"measurement": "concentration at 0.83 hr", "setting": "[1]; [5]", "result": 24.4, "unit": "ng/mL"}, {"measurement": "concentration at 1 hr", "setting": "[1]; [6]", "result": 36.4, "unit": "ng/mL"}, {"measurement": "concentration at 1 hr", "setting": "[1]; [5]", "result": 38.2, "unit": "ng/mL"}, {"measurement": "concentration at 1.5 hr", "setting": "[1]; [6]", "result": 40.1, "unit": "ng/mL"}, {"measurement": "concentration at 1.5 hr", "setting": "[1]; [5]", "result": 40.1, "unit": "ng/mL"}, {"measurement": "concentration at 2 hr", "setting": "[1]; 50 µL PBS, 150 µL blank glycerol -2 hr, individual rats, BLOQ = below 10 ng/mL", "result": 53.4, "unit": "ng/mL"}, {"measurement": "concentration at 2 hr", "setting": "[1]; [5]", "result": 54.1, "unit": "ng/mL"}, {"measurement": "concentration at 0.25 hr", "setting": "[1]; [7]", "result": 52, "unit": "ng/mL"}, {"measurement": "concentration at 0.25 hr", "setting": "[1]; 100 µL Glycerol, mean", "result": 56.4, "unit": "ng/mL"}, {"measurement": "concentration at 0.5 hr", "setting": "[1]; [7]", "result": 51.4, "unit": "ng/mL"}, {"measurement": "concentration at 0.5 hr", "setting": "[1]; 100 µL Glycerol, mean", "result": 48.7, "unit": "ng/mL"}, {"measurement": "concentration at 0.83 hr", "setting": "[1]; 100 µL Glycerol, mean", "result": 57.1, "unit": "ng/mL"}, {"measurement": "concentration at 1 hr", "setting": "[1]; [7]", "result": 38.5, "unit": "ng/mL"}, {"measurement": "concentration at 1 hr", "setting": "[1]; 100 µL Glycerol, mean", "result": 44.4, "unit": "ng/mL"}, {"measurement": "concentration at 1.5 hr", "setting": "[1]; 100 µL Glycerol, mean", "result": 46.9, "unit": "ng/mL"}, {"measurement": "concentration at 2 hr", "setting": "[1]; 100 µL Glycerol, mean", "result": 54.2, "unit": "ng/mL"}, {"measurement": "concentration at 0.25 hr", "setting": "[1]; [8]", "result": 109, "unit": "ng/mL"}, {"measurement": "concentration at 0.25 hr", "setting": "[1]; 150 µL Glycerol, mean", "result": 87.7, "unit": "ng/mL"}, {"measurement": "concentration at 0.5 hr", "setting": "[1]; 150 µL Glycerol, mean", "result": 69.2, "unit": "ng/mL"}, {"measurement": "concentration at 0.83 hr", "setting": "[1]; [8]", "result": 139, "unit": "ng/mL"}, {"measurement": "concentration at 0.83 hr", "setting": "[1]; 150 µL Glycerol, mean", "result": 107, "unit": "ng/mL"}, {"measurement": "concentration at 1 hr", "setting": "[1]; [8]", "result": 52.5, "unit": "ng/mL"}, {"measurement": "concentration at 1 hr", "setting": "[1]; 150 µL Glycerol, mean", "result": 49.9, "unit": "ng/mL"}, {"measurement": "concentration at 1.5 hr", "setting": "[1]; 150 µL Glycerol, mean", "result": 36.6, "unit": "ng/mL"}, {"measurement": "concentration at 2 hr", "setting": "[1]; 150 µL Glycerol, mean", "result": 29.3, "unit": "ng/mL"}, {"measurement": "solubility", "setting": "[2]", "result": "≥ 5000", "unit": "µg/mL"}]}]}
